The values below come from US11059800B2, “Dehydroleucodine derivatives and uses thereof” (Bioventures, LLC, priority 2013, dated 2021).

One series relates to TUR. Kind of series: Cytotoxicity, annexin V/7-AAD viability by flow cytometry, TUR. It is filed as cell-based, human. The conditions noted are these: 48 hours, drug range tested 1.25-160 μM. As to the method:
In order to assess the structure-activity relationship of DHL and its derivatives, DHL and its derivatives were evaluated against eight human leukemia cell lines. Cell lines were cultured in Iscove's Modified Dulbecco's Medium (IMDM) supplemented with 10%˜20% fetal bovine serum (FBS) according to culture conditions indicated by ATCC and 1% penicillin/streptomycin (Pen/Strep) at 37° C. and 5% CO2. The cells were seeded into 96-well plates and kept at a concentration of 0.5 million cells per mL. The samples were treated with DHL, Leucodine, DHL-Morpholine, DHL-Proline, DHL-Piperidine, and PTL at varying concentrations in triplicates. Cell viability was determined after incubating for 48 hours. The cells were stained with annexin V-fluorescein isothiocyanate or phycoeritrine (FITC/PE) and 7-aminoactinomycin (7-AAD) to detect phosphatidylserine exposition and cell permeability, respectively. At least 50,000 events were recorded per condition on either an LSR-II or LSR-Fortessa flow cytometer (BD Biosciences). Data analysis was conducted using FlowJo 9.6 software for Mac OS X (TreeStar). Cells that were negative for annexin V and 7-AAD were scored as viable.
For orientation: In flow cytometry, cells or beads pass a laser one at a time.

In another series the test system is HCT-116. Kind of series: Single dose tumor cell growth inhibition, Colon Cancer HCT-116. The format is cell-based, human. The conditions noted are these: HCT-116, single dose 10 μM. From the text: (§1) DHL is cytotoxic to various leukemia, colon cancer, CNS cancer and prostate cancer cell lines.
Another series has as its system NCI-H460. Kind of series: Single dose tumor cell growth inhibition, Non-Small Cell Lung Cancer NCI-H460. It is filed as cell-based. The conditions noted are these: NCI-H460, single dose 10 μM.
Excerpt: as §1

The next series deals with HMOX-1, HSPA1A, HSPH1. Kind of series: Real-time PCR gene expression in KG-1 and MOLM-13 cells. The format is cell-based. To be noted: 20 μM, 6 hours. From the text:
FIG. 1A, FIG. 1B, FIG. 1C, FIG. 1D and FIG. 1E present the changes in gene expression in KG1 or MOLM13 cells after exposure to dehydroleucodine, parthenolide, or derivatives thereof. Plotted is the fold change in expression relative to control after treatment with parthenolide-tyramine (PTL-Tyr), parthenolide (PTL), leucodine (Leuco), dehydroleucodine (DHL), dehydroleucodine-tyramine (DHL-Tyr), or dehydroleucodine-morpholine (DHL-Morp). […] FIG. 1B plots the expression of HSPA1A in KG1 cells. FIG. 1C presents the expression of HSPH1 in KG1 cells. […] FIG. 1E presents the expression of HSPH1 in MOLM13 cells. Error bars represent S.E.M.
MOLM-13 and KG-1 cells were seeded at 0.5 million cells per ml. Cells were treated for 6 hours with 20 μM of parthenolide (PTL), dehydroleucodine (DHL), leucodine (Leu), parthenolide-tyramine (PTL-Tyr), dehydroleucodine-tyramine (DHL-Tyr) and dehydroleucodine-Morpholine (DHL-Morp), and then collected. Total RNA was extracted using the Qiashredder and Qiagen Rneasy mini kits (Quiagen) according to the manufacturer's instructions. Real-time PCR was performed using the Taqman RNA to CT 1-Step kit (Applied Biosystems). […] Single-plex real-time PCR was performed in triplicates in a StepOne plus RealTime PCR system (Applied Biosystems) and analyzed with the StepOne Software. Fold change was calculated using the 2-DDCT method.

Series [1] deals with eight human leukemia cell lines.
Experimental: Cell lines were cultured in Iscove's Modified Dulbecco's Medium (IMDM) supplemented with 10%˜20% fetal bovine serum (FBS) according to culture conditions indicated by ATCC and 1% penicillin/streptomycin (Pen/Strep) at 37° C. and 5% CO2. The cells were seeded into 96-well plates and kept at a concentration of 0.5 million cells per mL. […] Cell viability was determined after incubating for 48 hours. The cells were stained with annexin V-fluorescein isothiocyanate or phycoeritrine (FITC/PE) and 7-aminoactinomycin (7-AAD) to detect phosphatidylserine exposition and cell permeability, respectively. At least 50,000 events were recorded per condition on either an LSR-II or LSR-Fortessa flow cytometer (BD Biosciences). Data analysis was conducted using FlowJo 9.6 software for Mac OS X (TreeStar). Cells that were negative for annexin V and 7-AAD were scored as viable.

“Also recorded” adds a separate entry of the source.

`C=C1C(=O)O[C@@H]2[C@H]3C(C)=CC(=O)C3=C(C)CC[C@@H]12` [DHL, dehydroleucodine] displayed an LD50 in the series with TUR of 12.18 µM. Further, the results for the Percent inhibition with HCT-116 and in the series with NCI-H460 were 41.3% and 0.0%, respectively. Also, in the series with HMOX-1, HSPA1A, HSPH1, the “expression of HMOX-1, HSPA1A and HSPH1” value is recorded as “activated the expression of all three target genes in both cell lines; also recorded: more potent than PTL”. Further, the “anti-leukemic activity / in vitro cytotoxicity” value in series [1] is “more potent anti-leukemic activity than PTL in most samples”. Moreover, the “LD50 values in the various leukemic cell lines tested” value in series [1] (range over the AML cell lines, 48 hours of treatment) is 5.02 to 18.95 µM.
